Measured values published in patent US20070298111A1, “Fine Particle-Containing Composition and Manufacturing Method Therefor” (EISAI R&D MANAGEMENT CO., LTD., priority 2004, published 2007).

Assays:
[1] = pharmacopoeia term; cited from earlier work
[2] = Solubility of glibenclamide in the presence of both α-CD and SDS; format: physicochemical; details: 3 days at room temperature
Experimental: To an aqueous solution (4 mL) containing α-CD and SDS was added glibenclamide (20 mg), which was stirred for 3 days at room temperature. This solution was filtered using a Millex-HV filter (Millipore) with a pore size of 0.45 μm, and the glibenclamide concentration in the filtrate was measured by HPLC using a Unison UK-C18 column (Imtakt).

For `COc1ccc(Cl)cc1C(=O)NCCc1ccc(S(=O)(=O)NC(=O)NC2CCCCC2)cc1` [glibenclamide, 4-[2-(5-Chloro-2-methoxybenzoylamino)ethyl](N-cyclohexylcarbamoyl)benzene-sulfonaide], the Solubility in water [1] is listed as “practically insoluble in water”, the “Solubility of glibenclamide relative to SDS concentration (FIG. 6)” value ([2]; α-CD added) is listed as “a bending point appeared indicating minimum solubility” and the “Solubility of glibenclamide relative to SDS concentration (FIG. 6)” value ([2]; α-CD concentration 0.0 mM) is listed as “solubility rose as the SDS concentration rose”.

In the case of `Cc1cccc(Nc2ccccc2C(=O)O)c1C` [mefenamic acid, 2-(2,3-dimethylphenylamino)benzoic acid], the Solubility in water [1] is listed as “practically insoluble in water”.

For `CC(=O)S[C@@H]1CC2=CC(=O)CC[C@]2(C)[C@H]2CC[C@@]3(C)[C@@H](CC[C@@]34CCC(=O)O4)[C@H]12` [spironolactone, 7α-acetylsulfanyl-3-oxo-17α-pregn-4-ene-21,17β-carbolactone], the Solubility in water [1] is given as “practically insoluble in water”.
